Measured values published in publication PMC2928581 (Nature communications, 2010).

Biological target: TRPML1 (ML1) (Mus musculus, UniProt Q99J21)
Assay: whole-endolysosome patch clamp, current activation
Type: biochemical

Sequence of TRPML1 (ML1) (Q99J21 whole entry): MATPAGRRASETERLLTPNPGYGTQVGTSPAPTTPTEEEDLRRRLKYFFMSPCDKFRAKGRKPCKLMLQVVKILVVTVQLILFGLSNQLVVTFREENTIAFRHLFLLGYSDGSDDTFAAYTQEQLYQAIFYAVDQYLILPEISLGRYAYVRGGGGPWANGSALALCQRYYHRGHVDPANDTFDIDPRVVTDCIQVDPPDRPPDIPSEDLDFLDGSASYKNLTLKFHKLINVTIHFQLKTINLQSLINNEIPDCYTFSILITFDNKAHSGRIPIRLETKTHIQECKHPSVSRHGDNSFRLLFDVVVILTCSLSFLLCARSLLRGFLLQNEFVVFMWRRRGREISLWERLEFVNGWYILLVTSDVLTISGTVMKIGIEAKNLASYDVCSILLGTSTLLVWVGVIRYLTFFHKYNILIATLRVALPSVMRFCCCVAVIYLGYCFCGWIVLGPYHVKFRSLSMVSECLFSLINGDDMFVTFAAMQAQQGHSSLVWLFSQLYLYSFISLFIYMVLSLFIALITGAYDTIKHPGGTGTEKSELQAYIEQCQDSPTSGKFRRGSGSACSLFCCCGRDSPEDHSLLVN

EC50: 48 ± 14 nM
SMILES: CCCCCCCC(=O)OC[C@H](COP(=O)(O)O[C@@H]1[C@H](O)[C@H](OP(=O)(O)O)[C@@H](O)[C@H](OP(=O)(O)O)[C@H]1O)OC(=O)CCCCCCC [PI(3,5)P2 (diC8)]
